In one test the test system is AGS. Kind of test: Cell growth inhibition assay (AGS). The test is classed as cell-based. To be noted: 6 days incubation, CellTiter-Glo. Summed up:
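AGS cells in F12K/10% FBS plated at 500 cells/well, attached overnight, then exposed to compounds for 6 days at 37° C./5% CO2. Viability by CellTiter-Glo luminescence; IC50 from 4-parameter logistic fit.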
On the technique in general: In ATP-based viability assays light output follows the ATP content of the culture.

For a further test, the system named is AsPC-1. Kind of test: Cell growth inhibition assay (AsPC-1). To be noted: AsPC-1, 6 days incubation, CellTiter-Glo. The test is classed as cell-based. The gist of the method: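 AsPC-1 cells seeded at 1000 cells/well in RPMI-1640 with 10% FBS, attached overnight, then exposed to compound dilutions for 6 days at 37 °C/5% CO2. Viability read by CellTiter-Glo luminescence; IC50 from a 4-parameter logistic fit.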

The target in test [1] is T1, GDP-loaded HIS-KRAS (G12D, aa 1-169) (Homo sapiens, UniProt P01116, G12D).
T1 construct: GDP-loaded HIS-KRAS (G12D, aa 1-169)
T1 sequence (P01116 1-169 isoform P01116-2 G12D): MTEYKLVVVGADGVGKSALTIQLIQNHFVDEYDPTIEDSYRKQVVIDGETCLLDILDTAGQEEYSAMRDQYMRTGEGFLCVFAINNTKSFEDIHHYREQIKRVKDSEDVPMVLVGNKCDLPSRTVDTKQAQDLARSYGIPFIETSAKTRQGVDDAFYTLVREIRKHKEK
As to the kind of experiment: SOS1 catalyzed nucleotide exchange assay. The test is classed as biochemical. To be noted: SOS1 ExD, TR-FRET, 4 hours at 25° C. Summed up: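 Compound was preincubated 15 min with 1.5 nM GDP-loaded KRAS G12D (final 5 nM GDP). SOS1 ExD (aa 564-1049, 0.5 µM), 80 nM BODIPY FL GTP and anti-His Tb antibody were then added for 4 h at 25 °C. The TR-FRET 515/486 ratio was normalized between DMSO and no-KRAS wells, and IC50 came from 4-parameter fits.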
A general note: In TR-FRET formats the signal depends on donor and acceptor labels being close together.

The test system of test [2] is AGS cells expressing KRAS G12D. As to the kind of experiment: Phospho-ERK1/2(THR202/TYR204) HTRF assay. The test is classed as cell-based. To be noted: 2 hours incubation, read-out: AGS p-ERK IC50. The gist of the method: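 Cells seeded 40,000/well, incubated overnight, then treated with compound in F12K with 0.1% FBS for 2 h at 37 °C. Lysates assayed for phospho-ERK1/2 by HTRF after 4 h at 25 °C; IC50 from 4-parameter logistic fit.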

For test [3], the target named is T2, GppNp-loaded HIS-KRAS (G12D, aa 1-169) / cRAF RBD (Homo sapiens, UniProt P01116, G12D).
T2 construct: GppNp-loaded HIS-KRAS (G12D, aa 1-169)
T2 sequence (P01116 1-169 isoform P01116-2 G12D): as above
Kind of test: GTP-KRAS and cRAF interaction assay. The test is classed as binding. To be noted: HTRF, 2 hours at 25° C. Summed up:
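GppNp-loaded KRAS G12D (2.0 nM) preincubated 15 min with compound, then cRAF RBD (35 nM) and HTRF antibodies added for 2 h at 25° C with 100 μM GTP final. Ratios normalized to DMSO and no-KRAS controls; IC50 by 4-parameter fit.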

Read-outs that look alike come from different tables or passages of the source. Some results are limits rather than exact numbers.

The record followed here is patent US20240059710A1, “KRAS G12D Inhibitors” (Jacobio Pharmaceuticals Co., Ltd., priority 2020, published 2024).

One may read the IC50 as the midpoint of a concentration-inhibition curve.

For the compound `C#Cc1cccc2cc(O)cc(-c3c(F)cc4c(N5CC6CCC(C5)N6)nc(OCC5(CN6CCOCC6)CC5)nc4c3F)c12` [Compound 41], the concentration for half-maximal inhibition (IC50) is 6.96 nM with AGS (Homo sapiens, 144 h); 18.7 nM with AsPC-1 (Homo sapiens, ASPC1, 144 h); 9.17 nM in test [1]; 2.63 nM in test [2] (Homo sapiens); 211 nM in test [3].

Regarding `C#Cc1c(F)ccc2cc(O)cc(-c3ccc4c(N5CC6CCC(C5)N6)nc(OC[C@@]56CCCN5C[C@H](F)C6)nc4c3F)c12` [Compound 67], the IC50 with AGS (Homo sapiens, 144 h) stood at 6.92 nM; with AsPC-1 (Homo sapiens, ASPC1, 144 h) it was 34.1 nM; in test [1], 8.77 nM; in test [2] (Homo sapiens) it was 3.72 nM; in test [3], 20.3 nM.

`C#Cc1c(F)ccc2cc(O)cc(-c3ccc4c(N5CC6CCC(C5)N6)nc(OCC5(CN6CCC(C(=O)O)CC6)CC5)nc4c3F)c12` [Compound 77]: the IC50 was 1180 nM in the test on AGS (Homo sapiens, 144 h); above 10000 nM with AsPC-1 (Homo sapiens, ASPC1, 144 h); 5.11 nM in test [1]; 173 nM in test [2] (Homo sapiens); 74.1 nM in test [3].

As to `C#Cc1cccc2cc(O)cc(-c3ccc4c(N5CC6CCC(C5)N6)nc(OCC5(CN6CCOCC6)CC5)nc4c3Cl)c12` [Compound 121], the IC50 in the test on AGS (Homo sapiens, 144 h) came out at 11.2 nM; in the test on AsPC-1 (Homo sapiens, ASPC1, 144 h) it was 67 nM; in test [1], 28.8 nM; in test [2] (Homo sapiens), 19.7 nM; in test [3], 318 nM.

Regarding `C#Cc1cccc2cc(O)cc(-c3c(Cl)cc4c(N5CC6CCC(C5)N6)nc(OC[C@@]56CCCN5C[C@H](F)C6)nc4c3F)c12` (single isomer, unassigned) [Compound 72B], the IC50 in the test on AGS stood at 4.71 nM; in the test with AsPC-1 it was 48.7 nM; in test [1], 3.3 nM; in test [2] it was 1.51 nM; in test [3] it was 23 nM.

With `C#Cc1cccc2cc(O)cc(-c3ccc4c(N5CC6CCC(C5)N6)nc(OCC5(CN6CCOC[C@H]6C)CC5)nc4c3F)c12` [Compound 115], the IC50 in the test with AGS (Homo sapiens, 144 h) was determined as 4.23 nM; in the test with AsPC-1 (Homo sapiens, ASPC1, 144 h) it was 7.52 nM; in test [1] it was 28.2 nM; in test [2] (Homo sapiens), 4.23 nM; in test [3] it was 121 nM.

Consider `C#Cc1cccc2cc(O)cc(-c3c(C(F)(F)F)cc4c(N5CC6CCC(C5)N6)nc(OCC5(CN6CCOCC6)CC5)nc4c3F)c12` [Compound 98], for which the IC50 in the test on AGS (Homo sapiens, 144 h) came out at 18 nM; in the test on AsPC-1 (Homo sapiens, ASPC1, 144 h) it was 69.7 nM; in test [1] it was 1.29 nM; in test [2] (Homo sapiens), 13.7 nM; in test [3], 20.1 nM.

For the compound `C#Cc1cccc2cc(O)cc(-c3c(F)cc4c(N5CC6CCC(C5)N6)nc(OCC5(CN6CCOCC6)CC5)nc4c3F)c12` (single isomer, unassigned) [Compound 41B], the IC50 in the test on AGS was determined as 0.671 nM; with AsPC-1, 3.84 nM; in test [1], 6.9 nM; in test [2], 1.01 nM; in test [3] it was 50.4 nM.

`C#Cc1cccc2cc(O)cc(-c3ccc4c(N5CC6CCC(C5)N6)nc(OCC5(CN6CCSCC6)CC5)nc4c3F)c12` [Compound 78]: the IC50 with AGS (Homo sapiens, 144 h) came to 4.04 nM; with AsPC-1 (Homo sapiens, ASPC1, 144 h), 30.3 nM; in test [1], 8.8 nM; in test [2] (Homo sapiens) it was 31.6 nM; in test [3] it was 99.8 nM.
